Source: patent publication US10196398B2, “Pesticidally active tetracyclic derivatives with sulfur containing substituents” (Syngenta Participations AG, priority 2014, dated 2019)
Like-named read-outs stand apart in the source and are kept apart here.

Assays:
Assay type in all cases: in vivo
[1] = test system: Diabrotica balteata; assay: Example B1: Diabrotica balteata (corn root worm), sprayed maize sprouts; details: 96 h, read-out: effect in at least one of the two categories (mortality or growth inhibition)
Protocol: Example B1: Diabrotica balteata (Corn Root Worm)
Maize sprouts placed onto an agar layer in 24-well microtiter plates were treated with aqueous test solutions prepared from 10′000 ppm DMSO stock solutions by spraying. After drying, the plates were infested with L2 larvae (6 to 10 per well). The samples were assessed for mortality and growth inhibition in comparison to untreated samples 4 days after infestation.

[2] = test system: Euschistus heros; assay: Example B2: Euschistus heros (neotropical brown stink bug), sprayed soybean leaves; details: 120 h, read-out: effect in at least one of the two categories (mortality or growth inhibition)
Protocol: Example B2: Euschistus heros(Neotropical Brown Stink Bug)
Soybean leaves on agar in 24-well microtiter plates were sprayed with aqueous test solutions prepared from 10′000 ppm DMSO stock solutions. After drying the leaves were infested with N2 nymphs. The samples were assessed for mortality and growth inhibition in comparison to untreated samples 5 days after infestation.

[3] = test system: Myzus persicae; assay: Example B3: Myzus persicae (green peach aphid), feeding/contact activity; details: 144 h
Protocol: Example B3: Myzus persicae (Green Peach Aphid):Feeding/Contact Activity
Sunflower leaf discs were placed onto agar in a 24-well microtiter plate and sprayed with aqueous test solutions prepared from 10′000 ppm DMSO stock solutions. After drying, the leaf discs were infested with an aphid population of mixed ages. The samples were assessed for mortality 6 days after infestation.

[4] = test system: Plutella xylostella; assay: Example B5: Plutella xylostella (diamond back moth), artificial diet; details: 120 h, read-out: effect in at least one of the two categories (mortality or growth inhibition)
Protocol: Example B5: Plutella xylostella (Diamond Back Moth)
24-well microtiter plates with artificial diet were treated with aqueous test solutions prepared from 10′000 ppm DMSO stock solutions by pipetting. After drying, the plates were infested with L2 larvae (10 to 15 per well). The samples were assessed for mortality and growth inhibition in comparison to untreated samples 5 days after infestation.

[5] = test system: Spodoptera littoralis; assay: whole plant or invertebrate; details: foliar, 72 h, read-out: control (mortality, anti-feeding effect, or growth inhibition)
Protocol: (§1) Example B6: Spodoptera littoralis (Egyptian Cotton Leaf Worm)
Cotton leaf discs were placed onto agar in 24-well microtiter plates and sprayed with aqueous test solutions prepared from 10′000 ppm DMSO stock solutions. After drying the leaf discs were infested with five L1 larvae. The samples were assessed for mortality, anti-feeding effect, and growth inhibition in comparison to untreated samples 3 days after infestation. Control of Spodoptera littoralis by a test sample is given when at least one of the categories mortality, anti-feedant effect, and growth inhibition is higher than the untreated sample.

[6] = test system: Spodoptera littoralis; assay: whole plant or invertebrate; details: in Gossypium barbadense, 144 h, read-out: effect in at least one of the three categories (mortality, anti-feeding, or growth inhibition)
From the text: as §1
Test compounds were applied by pipette from 10′000 ppm DMSO stock solutions into 24-well plates and mixed with agar. Lettuce seeds were placed onto the agar and the multi well plate was closed by another plate which contained also agar. After 7 days the compound was absorbed by the roots and the lettuce grew into the lid plate. The lettuce leaves were then cut off into the lid plate. Spodoptera eggs were pipetted through a plastic stencil onto a humid gel blotting paper and the lid plate was closed with it. The samples were assessed for mortality, anti-feedant effect and growth inhibition in comparison to untreated samples 6 days after infestation.

[7] = test system: Myzus persicae; assay: Example B4: Myzus persicae (green peach aphid), systemic activity; details: 144 h, test rate of 24 ppm, roots of pea seedlings in test solution, 6 days
Protocol: Example B4: Myzus persicae (Green Peach Aphid). Systemic Activity
Roots of pea seedlings infested with an aphid population of mixed ages were placed directly into aqueous test solutions prepared from 10′000 DMSO stock solutions. The samples were assessed for mortality 6 days after placing seedlings into test solutions.

[8] = test system: Frankliniella occidentalis; assay: Example B7: Frankliniella occidentalis (western flower thrips), feeding/contact activity; details: 168 h, application rate of 200 ppm, population of mixed ages, 7 days after infestation
Protocol: Example B7: Frankliniella occidentalis (Western Flower Thrips):Feeding/Contact Activity
(§2) Sunflower leaf discs were placed on agar in 24-well microtiter plates and sprayed with aqueous test solutions prepared from 10′000 DMSO stock solutions. After drying the leaf discs were infested with a Frankliniella population of mixed ages. The samples were assessed for mortality 7 days after infestation.

[9] = test system: Thrips tabaci; assay: Example B8: Thrips tabaci (onion thrips), feeding/contact activity; details: 144 h, application rate of 200 ppm, population of mixed ages, 6 days after infestation
Protocol: Example B8: Thrips tabaci (Onion Thrips) Feeding/Contact Activity
as §2, with “10′000 ppm” for “10′000”, “thrips” for “Frankliniella”, “6” for “7”

CCS(=O)(=O)c1cc2ccccc2nc1-c1cn2cnc(C(F)(F)F)cc2n1 [Compound P1, 3-ethylsulfonyl-2-[7-(trifluoromethyl)imidazo[1,2-c]pyrimidin-2-yl]quinolone]
≥ 80%: percent control (mortality or growth inhibition) at 200 ppm [1] | percent control (mortality or growth inhibition) at 200 ppm [2] | mortality at 200 ppm [3] | percent control (mortality or growth inhibition) at 200 ppm [4] | percent control (mortality, anti-feedant effect or growth inhibition) at 200 ppm [5] | percent control (mortality, anti-feedant effect or growth inhibition) at 12.5 ppm [6]

CCS(=O)(=O)c1cc2c(cc1-c1cn3cnc(C(F)(F)F)cc3n1)nc(C(F)(F)F)n2C [Compound P2, 2-[6-ethylsulfonyl-1-methyl-2-(trifluoromethyl)benzimidazol-5-yl]-7-(trifluoromethyl)imidazo[1,2-c]pyrimidine]
≥ 80%: percent effect (mortality or growth inhibition) at 200 ppm ([1]; application rate of 200 ppm, L2 larvae, 4 days after infestation) | percent effect (mortality or growth inhibition) at 200 ppm ([2]; application rate of 200 ppm, N2 nymphs, 5 days after infestation) | mortality at 200 ppm ([3]; application rate of 200 ppm, aphid population of mixed ages, 6 days after infestation, read-out: mortality) | mortality at 24 ppm [7] | percent effect (mortality or growth inhibition) at 200 ppm ([4]; application rate of 200 ppm, L2 larvae, 5 days after infestation) | mortality at 200 ppm [8] | mortality at 200 ppm [9]
